Like-named read-outs stand apart in the source and are kept apart here. Marks after values point to notes of the source that are not given here.
How the values were obtained:
HL-60(TB) = conditions: cited from earlier work
OVCAR-5 = conditions: OVCAR-5, Ovarian, NCI database, cited from earlier work
SNB-19 = conditions: SNB-19, CNS, NCI database, cited from earlier work
HCT-116 = conditions: HCT-116, Colon, NCI database, cited from earlier work
SR = conditions: Leukemia, NCI database, cited from earlier work
RPMI-8226 = conditions: RPMI-8226, Leukemia, NCI database, cited from earlier work
OVCAR-4 = conditions: OVCAR-4, Ovarian, NCI database, cited from earlier work
SF-539 = conditions: SF-539, CNS, NCI database, cited from earlier work
DU-145 = conditions: DU-145, Prostate, NCI database, cited from earlier work
NCI-H460 = conditions: NCI-H460, Non-Small Cell Lung, NCI database, cited from earlier work
HOP-62 [1] = conditions: HOP-62, Non-Small Cell Lung, NCI database, cited from earlier work
HOP-62 [2] = conditions: for CC50: read-out: LC50
HT29 = conditions: for CC50: read-out: LC50
U251 = conditions: for CC50: read-out: LC50
SK-MEL-2 = conditions: for CC50: read-out: LC50
[3] = test system: Heterozygous nude CD-1 male mice; experiment: Intestinal pathological analysis (crypt epithelial cell apoptosis) in treated mice; conditions: multiple doses
Description: (§1) Heterozygous nude CD-1 male mice were treated (i.p.) with multiple doses consisting of either one dose daily for three consecutive days (cis-AVTP or trans-AVTG, 21.25 μmol/kg, 6-TG, 8.5 or 21.25 μmol/kg, or vehicle; one cycle), or one dose daily for three consecutive days, repeated again five days later (cis-AVTP, trans-AVTG or 6-TG, 8.5 or 21.25 μmol/kg, or vehicle; two cycles).
(§2) The mice were sacrificed 24 h after the last treatment. Urine was collected for 24 h before initiation of treatment and every 24 h thereafter until the mice were sacrificed. Blood was collected by cardiac puncture and blood cells counted. Sections of liver, kidney, intestines, stomach and sternum were stained with hematoxylin and eosin and subjected to pathological analysis. Bone marrow smears were prepared for assessment of bone marrow cellularity. Liver function was evaluated by measuring alanine aminotransferase-(ALT) and aspartate aminotransferase (AST) activities in plasma. Kidney function was evaluated by measuring blood urea nitrogen in plasma and γ-glutamyltransferase activity and glucose levels in urine.

[4] = test system: Heterozygous nude CD-1 male mice; experiment: Hematology analyses in treated mice; conditions: i.p.
Description: as §1, §2

MDA-MB-231/ATCC = conditions: for CC50: read-out: LC50
A549/ATCC = conditions: for CC50: read-out: LC50
OVCAR-3 = conditions: for CC50: read-out: LC50
K-562 = conditions: for CC50: read-out: LC50
[5] = read-out: LC50 (the source's name)
[6] = HOP-62, Non-Small Cell Lung, 48 h
[7] = A549/ATCC, Non-Small Cell Lung, 48 h

Q: What does the source list for `Sc1ncnc2nc[nH]c12` [6-MP, 6-mercaptopurine]?
A: GI50 (HL-60(TB); Leukemia, NCI database): 2.3 µM; TGI (HL-60(TB); Leukemia, NCI database): >100 µM; CC50 (HL-60(TB); read-out: LC50, Leukemia, NCI database): > 100 µM; GI50 (OVCAR-5): 7.85 µM; TGI (OVCAR-5): >100 µM; CC50 (OVCAR-5; [5]): > 100 µM; GI50 (SNB-19): > 100 µM; TGI (SNB-19): >100 µM; CC50 (SNB-19; [5]): > 100 µM; TGI (HCT-116): >100 µM; CC50 (HCT-116; [5]): > 100 µM; CC50 (SR; [5]): > 100 µM; GI50 (SR): 1.27 µM; TGI (SR): >100 µM; GI50 (RPMI-8226): 1.75 µM; TGI (RPMI-8226): >100 µM; CC50 (RPMI-8226; [5]): > 100 µM; GI50 (OVCAR-4): 7.11 µM; TGI (OVCAR-4): >100 µM; CC50 (OVCAR-4; [5]): > 100 µM; GI50 (SF-539): 2.38 µM; TGI (SF-539): >100 µM; CC50 (SF-539; [5]): > 100 µM; GI50 (DU-145): 1.73 µM; TGI (DU-145): >100 µM; CC50 (DU-145; [5]): > 100 µM; GI50 (NCI-H460): 5.6 µM; TGI (NCI-H460): >100 µM; CC50 (NCI-H460; [5]): > 100 µM; GI50 (HOP-62 [1]): 1.69 µM; TGI (HOP-62 [1]): >100 µM; CC50 (HOP-62 [1]; [5]): > 100 µM

Q: For `CC(=O)C=CSc1ncnc2nc[nH]c12` [cis-AVTP, 6-(2-acetylvinylthio) purine], which TGI (HOP-62 [2]; [6]) is on record?
A: 21.2 µM

Q: And the GI50 (HOP-62 [2]; Homo sapiens, HOP-62, 48 h)?
A: 0.4 µM

Q: What about the CC50 (HOP-62 [2]; Homo sapiens, HOP-62, 48 h) of the same compound?
A: 88.9 µM

Q: And the TGI (HT29; HT29, Colon, 48 h)?
A: 2.85 µM

Q: What about the GI50 (HT29; Homo sapiens, HT-29, 48 h) of the same compound?
A: 0.73 µM

Q: And the CC50 (HT29; Homo sapiens, HT-29, 48 h)?
A: 9.23 µM

Q: And the GI50 (U251; Homo sapiens, U-251, 48 h)?
A: 2.74 µM

Q: And the CC50 (U251; Homo sapiens, U-251, 48 h)?
A: 56.3 µM

Q: And the TGI (U251; U251, CNS, 48 h)?
A: 10.2 µM

Q: What about the GI50 (SK-MEL-2; Homo sapiens, SK-MEL-2, 48 h) of the same compound?
A: 0.48 µM

Q: What about the CC50 (SK-MEL-2; Homo sapiens, SK-MEL-2, 48 h) of the same compound?
A: 40.7 µM

Q: What about the TGI (SK-MEL-2; SK-MEL-2, Melanoma, 48 h) of the same compound?
A: 8.22 µM

Q: What about the “crypt epithelial apoptosis, large intestines” value [3] of the same compound?
A: no increase

Q: What about the “crypt epithelial cell apoptosis, small intestines” value [3] of the same compound?
A: increased slightly

Q: What about the PLT ([4]; 8.5 μmol/kg, two cycles) of the same compound?
A: 1160 ± 349 × 10^3 cells/μl

Q: What about the RBC ([4]; 8.5 μmol/kg, two cycles) of the same compound?
A: 9.5 ± 0.3 × 10^6 cells/μl

Q: And the WBC ([4]; 8.5 μmol/kg, two cycles)?
A: 5.9 ± 2.3 × 10^3 cells/μl

Q: And the PLT ([4]; 21.25 μmol/kg, one cycle)?
A: 1644 ± 253^a × 10^3 cells/μl

Q: What about the RBC ([4]; 21.25 μmol/kg, one cycle) of the same compound?
A: 8.9 ± 0.6^a × 10^6 cells/μl

Q: What about the WBC ([4]; 21.25 μmol/kg, one cycle) of the same compound?
A: 8.0 ± 1.2^a × 10^3 cells/μl

Q: What about the PLT ([4]; 21.25 μmol/kg, two cycles) of the same compound?
A: 1257 ± 335 × 10^3 cells/μl

Q: And the RBC ([4]; 21.25 μmol/kg, two cycles)?
A: 9.0 ± 0.5 × 10^6 cells/μl

Q: And the WBC ([4]; 21.25 μmol/kg, two cycles)?
A: 8.4 ± 1.9 × 10^3 cells/μl

Q: What about the “change in peripheral white blood cell counts” value ([4]; trans-AVTG: only 21.25 μmol/kg two cycles, 6-TG: 8.5 or 21.25 μmol/kg one cycle or 21.25 μmol/kg two cycles) of the same compound?
A: No change

Q: And the GI50 (ACHN; Homo sapiens, 48 h)?
A: 1.99 µM

Q: What about the CC50 (ACHN; Homo sapiens, 48 h, read-out: LC50) of the same compound?
A: 7.59 µM

Q: And the TGI (ACHN; Renal, 48 h)?
A: 3.89 µM

Q: What about the GI50 (MDA-MB-231/ATCC; Homo sapiens, MDA-MB-231, 48 h) of the same compound?
A: 1.27 µM

Q: What about the CC50 (MDA-MB-231/ATCC; Homo sapiens, MDA-MB-231, 48 h) of the same compound?
A: > 100 µM

Q: And the TGI (MDA-MB-231/ATCC; MDA-MB-231/ATCC, Breast, 48 h)?
A: 4.56 µM

Q: What about the TGI (A549/ATCC; [7]) of the same compound?
A: 24.3 µM

Q: And the GI50 (A549/ATCC; Homo sapiens, A549, 48 h)?
A: 6.94 µM

Q: What about the CC50 (A549/ATCC; Homo sapiens, A549, 48 h) of the same compound?
A: 69.5 µM

Q: What about the GI50 (OVCAR-3; Homo sapiens, OVCAR-3, 48 h) of the same compound?
A: 0.03 µM

Q: And the CC50 (OVCAR-3; Homo sapiens, OVCAR-3, 48 h)?
A: 8.67 µM

Q: And the TGI (OVCAR-3; OVCAR-3, Ovarian, 48 h)?
A: 0.47 µM

Q: And the GI50 (K-562; Homo sapiens, K562, 48 h)?
A: 0.09 µM

Q: And the CC50 (K-562; Homo sapiens, K562, 48 h)?
A: > 100 µM

Q: And the TGI (K-562; K-562, Leukemia, 48 h)?
A: >100 µM

Q: What does the source list for `CC(=O)C=CSc1nc(N)nc2nc[nH]c12` [trans-AVTG, 6-(2-acetylvinylthio) guanine]?
A: GI50 (HOP-62 [2]; [6]): 1.62 µM; TGI (HOP-62 [2]; [6]): >100 µM; CC50 (HOP-62 [2]; [6]): > 100 µM; GI50 (HT29; HT29, Colon, 48 h): 1.06 µM; TGI (HT29; HT29, Colon, 48 h): 12.5 µM; CC50 (HT29; HT29, Colon, 48 h): 60.4 µM; GI50 (U251; U251, CNS, 48 h): 6.55 µM; TGI (U251; U251, CNS, 48 h): 48.4 µM; CC50 (U251; U251, CNS, 48 h): > 100 µM; GI50 (SK-MEL-2; SK-MEL-2, Melanoma, 48 h): 1.02 µM; TGI (SK-MEL-2; SK-MEL-2, Melanoma, 48 h): 15.5 µM; CC50 (SK-MEL-2; SK-MEL-2, Melanoma, 48 h): 98.7 µM; GI50 (ACHN; Renal, 48 h): 3.63 µM; TGI (ACHN; Renal, 48 h): 51.4 µM; CC50 (ACHN; read-out: LC50, Renal, 48 h): > 100 µM; GI50 (MDA-MB-231/ATCC; MDA-MB-231/ATCC, Breast, 48 h): 0.89 µM; TGI (MDA-MB-231/ATCC; MDA-MB-231/ATCC, Breast, 48 h): 23.6 µM; CC50 (MDA-MB-231/ATCC; MDA-MB-231/ATCC, Breast, 48 h): > 100 µM; GI50 (A549/ATCC; [7]): 5.75 µM; TGI (A549/ATCC; [7]): 32.8 µM; CC50 (A549/ATCC; [7]): > 100 µM; GI50 (OVCAR-3; OVCAR-3, Ovarian, 48 h): 0.24 µM; TGI (OVCAR-3; OVCAR-3, Ovarian, 48 h): 0.63 µM; CC50 (OVCAR-3; OVCAR-3, Ovarian, 48 h): 12.1 µM; GI50 (K-562; K-562, Leukemia, 48 h): 0.5 µM; TGI (K-562; K-562, Leukemia, 48 h): >100 µM; CC50 (K-562; K-562, Leukemia, 48 h): > 100 µM

From patent publication US20040023994A1 (priority 2002, published 2004)
